Data from the NIST ThermoML archive (doi:10.1016/j.jct.2015.08.014).

Experiment: xn = mol fraction of the nth substance listed
Settings: 298.15 K, 100 kPa, Liquid, Alternating current cell with electrodes

CCCC[N+]1(C)CCCC1.N#CN=C=[N-] [1-butyl-1-methylpyrrolidinium dicyanamide] + O=C1CCCO1
Settings | electrical conductivity [S/m]
Frequency=0.005 MHz, x1 = 0.3029 | 2.54
Frequency=0.005 MHz, x1 = 0.3845 | 2.36
Frequency=0.005 MHz, x1 = 0.4985 | 2.08
Frequency=0.005 MHz, x1 = 0.6954 | 1.68
Frequency=0.005 MHz, x1 = 0.9013 | 1.39
Frequency=0.005 MHz, x1 = 1 | 1.317
Frequency=0.005454 MHz, x1 = 0.0463 | 1.47
Frequency=0.005454 MHz, x1 = 0.0987 | 2.21
Frequency=0.005454 MHz, x1 = 0.1449 | 2.51
Frequency=0.005454 MHz, x1 = 0.1859 | 2.67
Frequency=0.005454 MHz, x1 = 0.2493 | 2.613
Frequency=0.005454 MHz, x1 = 0.3029 | 2.54
Frequency=0.005454 MHz, x1 = 0.3845 | 2.36
Frequency=0.005454 MHz, x1 = 0.4985 | 2.08
Frequency=0.005454 MHz, x1 = 0.6954 | 1.68
Frequency=0.005454 MHz, x1 = 0.9013 | 1.39
Frequency=0.005454 MHz, x1 = 1 | 1.317
Frequency=0.006 MHz, x1 = 0.0463 | 1.47
Frequency=0.006 MHz, x1 = 0.0987 | 2.21
Frequency=0.006 MHz, x1 = 0.1449 | 2.51
Frequency=0.006 MHz, x1 = 0.1859 | 2.67
Frequency=0.006 MHz, x1 = 0.2493 | 2.613
Frequency=0.006 MHz, x1 = 0.3029 | 2.54
Frequency=0.006 MHz, x1 = 0.3845 | 2.36
Frequency=0.006 MHz, x1 = 0.4985 | 2.08
Frequency=0.006 MHz, x1 = 0.6954 | 1.68
Frequency=0.006 MHz, x1 = 0.9013 | 1.39
Frequency=0.006 MHz, x1 = 1 | 1.317
Frequency=0.00652174 MHz, x1 = 0.0463 | 1.47
Frequency=0.00652174 MHz, x1 = 0.0987 | 2.22
Frequency=0.00652174 MHz, x1 = 0.1449 | 2.51
Frequency=0.00652174 MHz, x1 = 0.1859 | 2.67
Frequency=0.00652174 MHz, x1 = 0.2493 | 2.613
Frequency=0.00652174 MHz, x1 = 0.3029 | 2.54
Frequency=0.00652174 MHz, x1 = 0.3845 | 2.36
Frequency=0.00652174 MHz, x1 = 0.4985 | 2.08
Frequency=0.00652174 MHz, x1 = 0.6954 | 1.68
Frequency=0.00652174 MHz, x1 = 0.9013 | 1.39
Frequency=0.00652174 MHz, x1 = 1 | 1.317
Frequency=0.00694444 MHz, x1 = 0.0463 | 1.47
Frequency=0.00694444 MHz, x1 = 0.0987 | 2.22
Frequency=0.00694444 MHz, x1 = 0.1449 | 2.51
Frequency=0.00694444 MHz, x1 = 0.1859 | 2.67
Frequency=0.00694444 MHz, x1 = 0.2493 | 2.613
Frequency=0.00694444 MHz, x1 = 0.3029 | 2.54
Frequency=0.00694444 MHz, x1 = 0.3845 | 2.36
Frequency=0.00694444 MHz, x1 = 0.4985 | 2.08
Frequency=0.00694444 MHz, x1 = 0.6954 | 1.68
Frequency=0.00694444 MHz, x1 = 0.9013 | 1.39
Frequency=0.00694444 MHz, x1 = 1 | 1.317
Frequency=0.0075 MHz, x1 = 0.0463 | 1.47
Frequency=0.0075 MHz, x1 = 0.0987 | 2.22
Frequency=0.0075 MHz, x1 = 0.1449 | 2.51
Frequency=0.0075 MHz, x1 = 0.1859 | 2.67
Frequency=0.0075 MHz, x1 = 0.2493 | 2.613
Frequency=0.0075 MHz, x1 = 0.3029 | 2.54
Frequency=0.0075 MHz, x1 = 0.3845 | 2.36
Frequency=0.0075 MHz, x1 = 0.4985 | 2.08
Frequency=0.0075 MHz, x1 = 0.6954 | 1.68
Frequency=0.0075 MHz, x1 = 0.9013 | 1.39
Frequency=0.0075 MHz, x1 = 1 | 1.318
Frequency=0.008 MHz, x1 = 0.0463 | 1.47
Frequency=0.008 MHz, x1 = 0.0987 | 2.22
Frequency=0.008 MHz, x1 = 0.1449 | 2.51
Frequency=0.008 MHz, x1 = 0.1859 | 2.67
Frequency=0.008 MHz, x1 = 0.2493 | 2.613
Frequency=0.008 MHz, x1 = 0.3029 | 2.54
Frequency=0.008 MHz, x1 = 0.3845 | 2.36
Frequency=0.008 MHz, x1 = 0.4985 | 2.08
Frequency=0.008 MHz, x1 = 0.6954 | 1.68
Frequency=0.008 MHz, x1 = 0.9013 | 1.39
Frequency=0.008 MHz, x1 = 1 | 1.318
Frequency=0.00857143 MHz, x1 = 0.0463 | 1.48
Frequency=0.00857143 MHz, x1 = 0.0987 | 2.22
Frequency=0.00857143 MHz, x1 = 0.1449 | 2.51
Frequency=0.00857143 MHz, x1 = 0.1859 | 2.67
Frequency=0.00857143 MHz, x1 = 0.2493 | 2.613
Frequency=0.00857143 MHz, x1 = 0.3029 | 2.54
Frequency=0.00857143 MHz, x1 = 0.3845 | 2.36
Frequency=0.00857143 MHz, x1 = 0.4985 | 2.08
Frequency=0.00857143 MHz, x1 = 0.6954 | 1.68
Frequency=0.00857143 MHz, x1 = 0.9013 | 1.39
Frequency=0.00857143 MHz, x1 = 1 | 1.318
Frequency=0.00892857 MHz, x1 = 0.0463 | 1.48
Frequency=0.00892857 MHz, x1 = 0.0987 | 2.22
Frequency=0.00892857 MHz, x1 = 0.1449 | 2.51
Frequency=0.00892857 MHz, x1 = 0.1859 | 2.67
Frequency=0.00892857 MHz, x1 = 0.2493 | 2.614
Frequency=0.00892857 MHz, x1 = 0.3029 | 2.54
Frequency=0.00892857 MHz, x1 = 0.3845 | 2.36
Frequency=0.00892857 MHz, x1 = 0.4985 | 2.08
Frequency=0.00892857 MHz, x1 = 0.6954 | 1.68
Frequency=0.00892857 MHz, x1 = 0.9013 | 1.39
Frequency=0.00892857 MHz, x1 = 1 | 1.318
Frequency=0.00961538 MHz, x1 = 0.0463 | 1.48
Frequency=0.00961538 MHz, x1 = 0.0987 | 2.22
Frequency=0.00961538 MHz, x1 = 0.1449 | 2.51
Frequency=0.00961538 MHz, x1 = 0.1859 | 2.68
Frequency=0.00961538 MHz, x1 = 0.2493 | 2.614
Frequency=0.00961538 MHz, x1 = 0.3029 | 2.54
Frequency=0.00961538 MHz, x1 = 0.3845 | 2.36
Frequency=0.00961538 MHz, x1 = 0.4985 | 2.08
Frequency=0.00961538 MHz, x1 = 0.6954 | 1.68
Frequency=0.00961538 MHz, x1 = 0.9013 | 1.39
Frequency=0.00961538 MHz, x1 = 1 | 1.318
Frequency=0.01 MHz, x1 = 0.0463 | 1.48
Frequency=0.01 MHz, x1 = 0.0987 | 2.22
